{"source": "ChEMBL document CHEMBL5120794", "about": "“Development of 5-hydroxyl-1-azabenzanthrone derivatives as dual binding site and selective acetylcholinesterase inhibitors” (Eur J Med Chem, 2022)", "key": {"PC-12": {"tested_on": "PC-12", "experiment": "Cytoprotective activity against H2O2-induced oxidative damage in rat PC-12 cells assessed as cell viability at 1 uM preincubated for 4 hrs followed by H2O2 treatment for another 24 hrs by MTT assay", "type": "functional, cell-based", "conditions": "time 28.0 hrs"}, "Cholinesterase": {"biological_target": "Cholinesterase (Equus caballus, UniProt P81908)", "sequence (P81908 whole entry)": "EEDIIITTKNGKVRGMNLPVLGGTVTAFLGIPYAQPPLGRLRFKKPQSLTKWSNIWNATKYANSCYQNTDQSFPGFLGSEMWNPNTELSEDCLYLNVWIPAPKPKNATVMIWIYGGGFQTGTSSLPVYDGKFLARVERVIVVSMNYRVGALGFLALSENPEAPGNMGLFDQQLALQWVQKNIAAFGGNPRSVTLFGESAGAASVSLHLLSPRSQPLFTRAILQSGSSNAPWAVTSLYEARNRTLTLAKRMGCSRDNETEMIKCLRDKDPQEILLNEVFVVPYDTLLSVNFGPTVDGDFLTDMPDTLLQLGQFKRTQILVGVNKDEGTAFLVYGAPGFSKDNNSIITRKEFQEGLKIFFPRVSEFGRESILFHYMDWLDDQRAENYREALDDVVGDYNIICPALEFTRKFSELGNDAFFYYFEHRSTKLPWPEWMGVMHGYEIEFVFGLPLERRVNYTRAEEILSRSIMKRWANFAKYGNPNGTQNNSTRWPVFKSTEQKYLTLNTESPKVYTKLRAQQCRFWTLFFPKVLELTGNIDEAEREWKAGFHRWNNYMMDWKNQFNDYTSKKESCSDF", "description": "Inhibition of equine serum BchE using S-butyryl thiocholine iodide as substrate incubated for 10 mins followed by substrate addition measured at 0 to 180 secs by Ellman's method"}, "[1]": {"biological_target": "Amyloid-beta precursor protein (Homo sapiens) (UniProt P05067)", "sequence (P05067 whole entry)": "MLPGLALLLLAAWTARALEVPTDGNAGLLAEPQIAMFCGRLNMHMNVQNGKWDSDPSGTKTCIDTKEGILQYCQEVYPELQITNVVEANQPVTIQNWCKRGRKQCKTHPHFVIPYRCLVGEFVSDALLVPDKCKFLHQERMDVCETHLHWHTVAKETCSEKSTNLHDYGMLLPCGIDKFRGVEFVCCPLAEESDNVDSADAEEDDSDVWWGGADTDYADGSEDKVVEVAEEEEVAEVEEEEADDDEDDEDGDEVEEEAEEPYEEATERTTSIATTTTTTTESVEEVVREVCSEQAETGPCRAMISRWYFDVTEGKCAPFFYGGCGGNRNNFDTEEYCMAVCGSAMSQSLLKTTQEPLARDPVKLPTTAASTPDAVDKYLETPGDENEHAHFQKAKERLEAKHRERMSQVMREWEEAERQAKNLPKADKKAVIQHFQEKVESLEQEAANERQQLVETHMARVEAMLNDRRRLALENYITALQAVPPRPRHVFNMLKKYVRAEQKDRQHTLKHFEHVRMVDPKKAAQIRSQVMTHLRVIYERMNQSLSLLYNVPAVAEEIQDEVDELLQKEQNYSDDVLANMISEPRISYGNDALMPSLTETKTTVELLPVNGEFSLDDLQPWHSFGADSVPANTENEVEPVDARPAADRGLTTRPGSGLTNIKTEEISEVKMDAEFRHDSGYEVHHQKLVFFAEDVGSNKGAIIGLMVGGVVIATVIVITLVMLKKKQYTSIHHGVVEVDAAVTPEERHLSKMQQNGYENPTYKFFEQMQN", "experiment": "Inhibition of amyloid beta (1 to 42) (unknown origin) self-induced aggregation at 25 uM measured after 46 to 48 hrs by Thioflavin binding assay relative to control", "conditions": "time 46-48 hrs"}, "Acetylcholinesterase": {"biological_target": "Acetylcholinesterase (Electrophorus electricus, UniProt O42275)", "sequence (O42275 whole entry)": "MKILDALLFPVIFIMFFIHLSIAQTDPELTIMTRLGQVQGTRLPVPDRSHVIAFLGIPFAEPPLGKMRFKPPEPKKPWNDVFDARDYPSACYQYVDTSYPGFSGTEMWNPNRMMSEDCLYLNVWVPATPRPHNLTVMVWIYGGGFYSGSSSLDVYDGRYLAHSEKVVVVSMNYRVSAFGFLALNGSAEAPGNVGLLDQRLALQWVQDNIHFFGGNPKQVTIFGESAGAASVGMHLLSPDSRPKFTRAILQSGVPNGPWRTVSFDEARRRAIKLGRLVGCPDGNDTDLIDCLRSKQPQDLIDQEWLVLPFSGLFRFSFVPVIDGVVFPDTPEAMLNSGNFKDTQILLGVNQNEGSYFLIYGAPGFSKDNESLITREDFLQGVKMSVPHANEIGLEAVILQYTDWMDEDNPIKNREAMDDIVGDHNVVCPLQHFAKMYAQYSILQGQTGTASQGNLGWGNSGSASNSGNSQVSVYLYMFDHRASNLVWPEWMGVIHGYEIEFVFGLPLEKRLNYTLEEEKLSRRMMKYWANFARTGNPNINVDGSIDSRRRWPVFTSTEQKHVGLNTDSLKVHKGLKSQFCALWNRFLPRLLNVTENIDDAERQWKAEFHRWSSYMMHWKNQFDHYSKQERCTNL", "experiment": "Inhibition of Electrophorus electricus AchE using […] as substrate incubated for 10 mins followed by substrate addition measured at 0 to 180 secs by Ellman's method"}}, "note": "Activity calls are given as the source filed them. The rule behind the calls is not given here."}
{"smiles": "CN1CCN(CCCCOc2cc3c4c(nccc4c2)-c2ccccc2C3=O)CC1", "values": [{"measurement": "Activity", "setting": "PC-12", "value": "Active"}, {"measurement": "IC50", "setting": "Cholinesterase", "value": "> 100", "unit": "µM"}, {"measurement": "inhibition", "setting": "[1]", "value": 25.4, "unit": "%"}, {"measurement": "IC50", "setting": "Acetylcholinesterase", "value": 1.41, "unit": "µM"}]}
{"smiles": "CC1CCCCN1CCCCOc1cc2c3c(nccc3c1)-c1ccccc1C2=O", "note": "(stereo unspecified)", "values": [{"measurement": "Activity", "setting": "PC-12", "value": "Active"}, {"measurement": "IC50", "setting": "Cholinesterase", "value": 4.15, "unit": "µM"}, {"measurement": "inhibition", "setting": "[1]", "value": 34.8, "unit": "%"}, {"measurement": "IC50", "setting": "Acetylcholinesterase", "value": 0.25, "unit": "µM"}]}
{"smiles": "O=C1c2ccccc2-c2nccc3cc(OCCCCN4CCOCC4)cc1c23", "values": [{"measurement": "Activity", "setting": "PC-12", "value": "Active"}, {"measurement": "IC50", "setting": "Cholinesterase", "value": "> 100", "unit": "µM"}, {"measurement": "inhibition", "setting": "[1]", "value": 13.1, "unit": "%"}, {"measurement": "IC50", "setting": "Acetylcholinesterase", "value": 7.3, "unit": "µM"}]}
{"smiles": "CN1CCN(CCOc2cc3c4c(nccc4c2)-c2ccccc2C3=O)CC1", "values": [{"measurement": "Activity", "setting": "PC-12", "value": "Active"}, {"measurement": "IC50", "setting": "Cholinesterase", "value": "> 100", "unit": "µM"}, {"measurement": "inhibition", "setting": "[1]", "value": 18.5, "unit": "%"}, {"measurement": "IC50", "setting": "Acetylcholinesterase", "value": 0.86, "unit": "µM"}]}
